We go through nine molecules from patent US11389466B2 (priority 2017, dated 2022).

The structures appear in SMILES notation. Values joined by “and” are separate entries in the source; they are usually repeats but may differ in a detail not shown here. Equal values may be shown once. Read-outs that look alike come from different tables or passages of the source.

In experiment [1] the test system is Aspergillus fumigatus conidia (adhesion on pneumocytes A549). Format: cell-based.
Experiment [2] deals with AFL lectin (Aspergillus fumigatus, UniProt Q4WW81). As to the kind of experiment: biochemical. The class given is binding. As to conditions: for Stoichiometry: amount of ligand bound to a single protein; for β (β-factor, relative potency per ligand): β=(Kd)monovalent/[(Kd)multivalent×Valency], calculated from methylfucoside.
Chain of AFL lectin (Q4WW81 whole entry): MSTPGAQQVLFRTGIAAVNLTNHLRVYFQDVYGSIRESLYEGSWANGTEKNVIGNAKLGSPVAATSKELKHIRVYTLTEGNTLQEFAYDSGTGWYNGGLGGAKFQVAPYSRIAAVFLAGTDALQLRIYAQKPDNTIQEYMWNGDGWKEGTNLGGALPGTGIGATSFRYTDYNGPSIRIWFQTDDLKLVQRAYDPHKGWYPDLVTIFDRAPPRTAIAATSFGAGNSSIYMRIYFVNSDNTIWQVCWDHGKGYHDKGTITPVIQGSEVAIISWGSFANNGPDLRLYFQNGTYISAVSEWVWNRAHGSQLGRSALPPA
[3] abbreviates: Table 2, second batch of purified AFL protein.

As for `C[C@@H]1O[C@@H](OCc2cn(CCOCCOCCOCCn3cc(CO[C@@H]4O[C@@H](C)[C@@H](O)[C@@H](O)[C@@H]4O)nn3)nn2)[C@@H](O)[C@H](O)[C@@H]1O` [Compound 24], the “decrease of the adhesion of the conidia” value in experiment [1] (100 μM in fucose equivalent) came to 37%. In experiment [2], the Kd – broadly, a measure of binding affinity in units of concentration – stood at 3800 ± 300 nM and the “β (β-factor, relative potency per ligand)” value is 68. Further, in experiment [2] (Table 1, first AFL batch), the “−TΔS” value is 11 ± 0.72 kcal/mol; the “−ΔG” value worked out at 7.41 ± 0.048 kcal/mol; the “−ΔH” value was 18.4 ± 0.72 kcal/mol; the Stoichiometry was 2.12 and 2.12 ± 0.03.

Take `CC1OC(OCc2cn(CCOCCOCCOCCSCC[Si]34O[Si]5(CCSCCOCCOCCOCCn6cc(COC7OC(C)C(O)C(O)C7O)nn6)O[Si]6(CCSCCOCCOCCOCCn7cc(COC8OC(C)C(O)C(O)C8O)nn7)O[Si](CCSCCOCCOCCOCCn7cc(COC8OC(C)C(O)C(O)C8O)nn7)(O3)O[Si]3(CCSCCOCCOCCOCCn7cc(COC8OC(C)C(O)C(O)C8O)nn7)O[Si](CCSCCOCCOCCOCCn7cc(COC8OC(C)C(O)C(O)C8O)nn7)(O4)O[Si](CCSCCOCCOCCOCCn4cc(COC7OC(C)C(O)C(O)C7O)nn4)(O5)O[Si](CCSCCOCCOCCOCCn4cc(COC5OC(C)C(O)C(O)C5O)nn4)(O6)O3)nn2)C(O)C(O)C1O` (stereo not drawn) [Compound 40]: in experiment [2], binding was put at a Kd of 400 ± 70 nM, the “N (stoichiometry)” value was 0.84 ± 0.02, the “−TΔS” value was 51.82 ± 4.04 kcal/mol and the “−ΔG” value worked out at 8.75 ± 0.096 kcal/mol. Moreover, in experiment [2], the “−ΔH” value was found to be 60.44 ± 4.06 kcal/mol.

With `CC1OC(OCc2cn(CC3OC4OC5C(Cn6cc(COC7OC(C)C(O)C(O)C7O)nn6)OC(OC6C(Cn7cc(COC8OC(C)C(O)C(O)C8O)nn7)OC(OC7C(Cn8cc(COC9OC(C)C(O)C(O)C9O)nn8)OC(OC8C(Cn9cc(COC%10OC(C)C(O)C(O)C%10O)nn9)OC(OC9C(Cn%10cc(COC%11OC(C)C(O)C(O)C%11O)nn%10)OC(OC3C(O)C4O)C(O)C9O)C(O)C8O)C(O)C7O)C(O)C6O)C(O)C5O)nn2)C(O)C(O)C1O` (stereo not drawn) [Compound 44], in experiment [2] (setting [3]), binding was characterised by a dissociation constant (Kd) of 1940 ± 500 nM, the “N (stoichiometry)” value is 1.36 ± 0.01, the “−TΔS” value is 21.6 ± 0.621 kcal/mol and the “−ΔG” value is 7.82 ± 0.17 kcal/mol. The “−ΔH” value in experiment [2] (setting [3]) was determined as 29.37 ± 0.454 kcal/mol.

As for `CC1OC(OCCOCCOCCOCCOCc2cn(CC3OC4OC5C(Cn6cc(COCCOCCOCCOCCOC7OC(C)C(O)C(O)C7O)nn6)OC(OC6C(Cn7cc(COCCOCCOCCOCCOC8OC(C)C(O)C(O)C8O)nn7)OC(OC7C(Cn8cc(COCCOCCOCCOCCOC9OC(C)C(O)C(O)C9O)nn8)OC(OC8C(Cn9cc(COCCOCCOCCOCCOC%10OC(C)C(O)C(O)C%10O)nn9)OC(OC9C(Cn%10cc(COCCOCCOCCOCCOC%11OC(C)C(O)C(O)C%11O)nn%10)OC(OC3C(O)C4O)C(O)C9O)C(O)C8O)C(O)C7O)C(O)C6O)C(O)C5O)nn2)C(O)C(O)C1O` (stereo not drawn) [Compound 30], in experiment [2] (Table 1, first AFL batch), binding was put at a Kd of 180 nM, the “−TΔS” value turned out to be 43.3 ± 1.9 kcal/mol, the “−ΔG” value was found to be 9.18 ± 0.048 kcal/mol and the “−ΔH” value was 52.6 ± 1.9 kcal/mol. In experiment [2] (Table 1, first AFL batch), this molecule registered a Stoichiometry of 0.77 ± 0.04. Further, in experiment [2] (setting [3]), binding was characterised by a dissociation constant (Kd) of 130 ± 10 nM, the “N (stoichiometry)” value is 0.95 ± 0.02, the “−TΔS” value is 40.49 ± 0.14 kcal/mol and the “−ΔG” value was determined as 9.39 ± 0.072 kcal/mol. The “−ΔH” value in experiment [2] (setting [3]) came to 49.93 ± 0.239 kcal/mol. Besides, in experiment [2] (first AFL batch), the Kd amounted to 180 nM; the “Kd values (in words)” value is reported as “sub-micromolar range”; the “enthalpic contribution, times higher than the reference monovalent compound 33” value was determined as 3.7; the “increase of the −TΔS factor versus the reference monovalent compound” value is listed as 4.7. In addition, the “β (β-factor, relative potency per ligand)” value in experiment [2] is reported as 479.

For the molecule `CC1OC(OCCOCCOCc2cn(CC3OC4OC5C(Cn6cc(COCCOCCOC7OC(C)C(O)C(O)C7O)nn6)OC(OC6C(Cn7cc(COCCOCCOC8OC(C)C(O)C(O)C8O)nn7)OC(OC7C(Cn8cc(COCCOCCOC9OC(C)C(O)C(O)C9O)nn8)OC(OC8C(Cn9cc(COCCOCCOC%10OC(C)C(O)C(O)C%10O)nn9)OC(OC9C(Cn%10cc(COCCOCCOC%11OC(C)C(O)C(O)C%11O)nn%10)OC(OC3C(O)C4O)C(O)C9O)C(O)C8O)C(O)C7O)C(O)C6O)C(O)C5O)nn2)C(O)C(O)C1O` (stereo not drawn) [Compound 29], in experiment [1] (A. fumigatus spores, compound 29 at 10 μM), the “formation of spore agglomerates (microscope observation)” value is reported as “formation of A. fumigatus spore agglomerates”. For the same molecule, in experiment [2] (Table 1, first AFL batch), the Kd came to 600 nM, the “−TΔS” value came out at 30 ± 0.14 kcal/mol, the “−ΔG” value worked out at 8.48 ± 0.024 kcal/mol and the “−ΔH” value was 38.5 ± 0.24 kcal/mol. For the same molecule, the Stoichiometry in experiment [2] (Table 1, first AFL batch) is given as 1.01 ± 0.02. In experiment [2] (setting [3]), the dissociation constant Kd was 530 ± 40 nM, the “N (stoichiometry)” value is 1.20 ± 0.09, the “−TΔS” value stood at 32.53 ± 3.61 kcal/mol and the “−ΔG” value stood at 8.58 ± 0.048 kcal/mol. Moreover, the “−ΔH” value in experiment [2] (setting [3]) was found to be 41.06 ± 3.66 kcal/mol. Further, in experiment [2] (first AFL batch), the “Kd values (in words)” value is given as “sub-micromolar range”; the “enthalpic contribution, times higher than the reference monovalent compound 33” value came out at 2.7; the “increase of the −TΔS factor versus the reference monovalent compound” value is 3.3. Also, the “β (β-factor, relative potency per ligand)” value in experiment [2] is recorded as 144.

`C[C@@H]1O[C@@H](OCc2cn(CCOCCOCCOCCO)nn2)[C@@H](O)[C@H](O)[C@@H]1O` [Compound 33, reference compound]: the “anti-adhesive activity (in words)” value in experiment [1] (concentrations of 1 and 10 μM in fucose equivalent) is “absence of anti-adhesive activity”. In addition, in experiment [2], the Kd was 167000 nM and the “β (β-factor, relative potency per ligand)” value was 3. Further, in experiment [2] (Table 1, first AFL batch), the “−TΔS” value turned out to be 9.08 ± 2.2 kcal/mol, the “−ΔG” value came out at 5.26 ± 0.24 kcal/mol, the “−ΔH” value was 14.3 ± 1.9 kcal/mol and the Stoichiometry was 4.0 ± 0.3.

For the molecule `C[C@@H]1O[C@@H](OCc2cn(CCOCCOCCOCCOCCOCCOCCOCCOCCOCCOCCOCCn3cc(CO[C@@H]4O[C@@H](C)[C@@H](O)[C@@H](O)[C@@H]4O)nn3)nn2)[C@@H](O)[C@H](O)[C@@H]1O` [Compound 26], in experiment [1] (10 μM in fucose equivalent), the “residual adhesion of the conidia on the pneumocytes” value is recorded as 76%. Besides, in experiment [2], the Kd worked out at 550 nM and the “β (β-factor, relative potency per ligand)” value was 470. In experiment [2] (Table 1, first AFL batch), the “−TΔS” value is 8.6 ± 0.14 kcal/mol; the “−ΔG” value worked out at 8.58 ± 0.22 kcal/mol; the “−ΔH” value amounted to 17.7 ± 1.4 kcal/mol; the Stoichiometry was 2.35 and 2.35 ± 0.31.

On to `CO[C@@H]1O[C@@H](C)[C@@H](O)[C@@H](O)[C@@H]1O` [αMeFuc, methylfucoside, reference compound], for which, in experiment [2] (Table 1, first AFL batch), the “−TΔS” value is 6.41 kcal/mol, the “−ΔG” value worked out at 4.04 kcal/mol, the “−ΔH” value is 11.5 kcal/mol and the Stoichiometry turned out to be 5. Also, the Kd in experiment [2] (Table 1, first AFL batch, read-out: Kd) was 517000 nM. In addition, in experiment [2] (setting [3]), the “N (stoichiometry)” value was determined as 3.3 ± 0.42, the “−TΔS” value was found to be 9.97 ± 1.48 kcal/mol, the “−ΔG” value was 5.4 ± 0.0048 kcal/mol and the “−ΔH” value was found to be 15.4 ± 1.48 kcal/mol. Besides, the Kd in experiment [2] (Table 2, second batch of purified AFL protein, read-out: Kd) stood at 110000 nM.

On to `OC[C@H]1O[C@@H]2O[C@H]3[C@H](O)[C@@H](O)[C@@H](O[C@H]4[C@H](O)[C@@H](O)[C@@H](O[C@H]5[C@H](O)[C@@H](O)[C@@H](O[C@H]6[C@H](O)[C@@H](O)[C@@H](O[C@H]7[C@H](O)[C@@H](O)[C@@H](O[C@H]1[C@H](O)[C@H]2O)O[C@@H]7CO)O[C@@H]6CO)O[C@@H]5CO)O[C@@H]4CO)O[C@@H]3CO` [free α-cyclodextrine, α-cyclodextrine, reference compound], for which the “affinity for the AFL lectin (in words)” value in experiment [2] is recorded as “no affinity”.
